Data as given in ChEMBL document CHEMBL3044985, “Novel antitubercular diallyl/dibenzylthiosemicarbazones endowed with high activity toward multi-drug-resistant tuberculosis” (Med Chem Res, 2012).
≈ marks a conversion by molar mass, not a printed value.

Assays:
[1] = test system: Mycobacterium tuberculosis; test: Antitubercular activity against Mycobacterium tuberculosis H37Rv by NCCLS agar dilution method; assay type: functional
[2] = Cytotoxicity against Chlorocebus aethiops (African green monkey) Vero cells assessed as cell viability after 72 hr by MTT assay; assay type: cell-based; conditions: chlorocebus sabaeus
[3] = test system: Mycobacterium tuberculosis; test: Ratio of ofloxacin MIC to compound MIC for Mycobacterium tuberculosis H37Rv; assay type: functional
[4] = test system: Mycobacterium tuberculosis; test: Ratio of isoniazid MIC to compound MIC for Mycobacterium tuberculosis H37Rv; assay type: functional
[5] = test system: Mycobacterium tuberculosis; test: Ratio of ethambutol MIC to compound MIC for Mycobacterium tuberculosis H37Rv; assay type: functional
[6] = Selectivity index, ratio of CC50 for african green monkey Vero cells to MIC for Mycobacterium tuberculosis H37Rv; assay type: toxicity, cell-based; conditions: read-out: Selectivity Index

`S=C(NN=C(c1ccccc1)c1ccccc1)N(Cc1ccccc1)Cc1ccccc1` gave an MIC [1] of 3.58 µM (≈ 1.56 µg/mL) and a CC50 at 72 h [2] of 143 µM.
For `C=CCN(CC=C)C(=S)N/N=C(/C)CC`, the MIC [1] was 111 µM (≈ 25 µg/mL).
`CC/C(C)=N\NC(=S)N(Cc1ccccc1)Cc1ccccc1` showed an MIC [1] of 76.8 µM (≈ 25 µg/mL).
For `O=[N+]([O-])c1ccc(/C=N\NC(=S)N(Cc2ccccc2)Cc2ccccc2)cc1`, the MIC [1] was 0.98 µM (≈ 0.396 µg/mL) and the CC50 at 72 h [2] was < 155 µM.
`C=CCN(CC=C)C(=S)N/N=C\c1ccc(Cl)cc1` showed an MIC [1] of 5.3 µM (≈ 1.56 µg/mL) and a CC50 at 72 h [2] of 213 µM.
Molecule `S=C(N/N=C\c1ccc(Cl)cc1)N(Cc1ccccc1)Cc1ccccc1` has an MIC [1] of 1.98 µM (≈ 0.78 µg/mL) and a CC50 at 72 h [2] of 159 µM.
With `C=CCN(CC=C)C(=S)N/N=C\c1ccccc1C` the MIC [1] was 22.9 µM (≈ 6.25 µg/mL) and the CC50 at 72 h [2] was > 229 µM.
Work on `Cc1ccccc1/C=N\NC(=S)N(Cc1ccccc1)Cc1ccccc1` yielded an MIC [1] of 8.38 µM (≈ 3.13 µg/mL) and a CC50 at 72 h [2] of 167 µM.
Work on `C=CCN(CC=C)C(=S)N/N=C\c1ccccc1O` yielded an MIC [1] of 45.4 µM (≈ 12.5 µg/mL).
With `Oc1ccccc1/C=N\NC(=S)N(Cc1ccccc1)Cc1ccccc1` the MIC [1] was 8.33 µM (≈ 3.13 µg/mL) and the CC50 at 72 h [2] was 166 µM.
For `C=CCN(CC=C)C(=S)N/N=C\c1ccc([N+](=O)[O-])o1`, the MIC [1] was 2.65 µM (≈ 0.78 µg/mL) and the CC50 at 72 h [2] was < 212 µM.
`O=[N+]([O-])c1ccc(/C=N\NC(=S)N(Cc2ccccc2)Cc2ccccc2)o1` showed a Ratio [3] of 4.2, an MIC [1] of 0.5 µM (≈ 0.197 µg/mL) and a Ratio [4] of 1.3. The CC50 at 72 h [2] was 158 µM, the Ratio [5] was 9.4 and the selectivity ratio [6] was > 316.
Work on `C=CCN(CC=C)C(=S)N/N=C(/C)c1ccccc1` yielded an MIC [1] of 22.9 µM (≈ 6.25 µg/mL) and a CC50 at 72 h [2] of 229 µM.
Molecule `C/C(=N/NC(=S)N(Cc1ccccc1)Cc1ccccc1)c1ccccc1` has an MIC [1] of 16.7 µM (≈ 6.25 µg/mL) and a CC50 at 72 h [2] of 167 µM.
In the case of `C=CCN(CC=C)C(=S)N/N=C(/C)c1ccccc1O`, the MIC [1] is reported as 21.6 µM (≈ 6.25 µg/mL) and the CC50 at 72 h [2] is reported as 216 µM.
With `C/C(=N/NC(=S)N(Cc1ccccc1)Cc1ccccc1)c1ccccc1O` the MIC [1] was 8.03 µM (≈ 3.13 µg/mL) and the CC50 at 72 h [2] was 160 µM.
Molecule `C=CCN(CC=C)C(=S)N/N=C(/C)c1ccc(O)cc1` has an MIC [1] of 21.6 µM (≈ 6.25 µg/mL) and a CC50 at 72 h [2] of 216 µM.
For `C/C(=N/NC(=S)N(Cc1ccccc1)Cc1ccccc1)c1ccc(O)cc1`, the MIC [1] was 16.1 µM (≈ 6.26 µg/mL) and the CC50 at 72 h [2] was 160 µM.
`C=CCN(CC=C)C(=S)N/N=C(/C)c1ccc(N)cc1` showed an MIC [1] of 43.3 µM (≈ 12.5 µg/mL).
For `C/C(=N/NC(=S)N(Cc1ccccc1)Cc1ccccc1)c1ccc(N)cc1`, the MIC [1] was 16.1 µM (≈ 6.25 µg/mL) and the CC50 at 72 h [2] was 161 µM.
In the case of `C=CCN(CC=C)C(=S)N/N=C(/C)c1ccc([N+](=O)[O-])cc1`, the MIC [1] is reported as 9.83 µM (≈ 3.13 µg/mL) and the CC50 at 72 h [2] is reported as < 196 µM.
In the case of `C/C(=N/NC(=S)N(Cc1ccccc1)Cc1ccccc1)c1ccc([N+](=O)[O-])cc1`, the MIC [1] is reported as 3.72 µM (≈ 1.56 µg/mL) and the CC50 at 72 h [2] is reported as < 149 µM.
`C=CCN(CC=C)C(=S)N/N=C(/C)c1ccc(F)cc1` showed an MIC [1] of 10.7 µM (≈ 3.13 µg/mL) and a CC50 at 72 h [2] of 214 µM.
`C/C(=N/NC(=S)N(Cc1ccccc1)Cc1ccccc1)c1ccc(F)cc1` showed an MIC [1] of 7.99 µM (≈ 3.13 µg/mL) and a CC50 at 72 h [2] of 160 µM.
Work on `C=CCN(CC=C)C(=S)NN=C(c1ccccc1)c1ccccc1` yielded an MIC [1] of 9.33 µM (≈ 3.13 µg/mL) and a CC50 at 72 h [2] of 186 µM.
In the case of `C=CCN(CC=C)C(=S)N/N=C\c1ccccc1`, the MIC [1] is reported as 48.2 µM (≈ 12.5 µg/mL).
Work on `S=C(N/N=C\c1ccccc1)N(Cc1ccccc1)Cc1ccccc1` yielded an MIC [1] of 17.4 µM (≈ 6.26 µg/mL) and a CC50 at 72 h [2] of 174 µM.
In the case of `C=CCN(CC=C)C(=S)N/N=C\c1ccccc1[N+](=O)[O-]`, the MIC [1] is reported as 5.12 µM (≈ 1.56 µg/mL) and the CC50 at 72 h [2] is reported as 205 µM.
For `O=[N+]([O-])c1ccccc1/C=N\NC(=S)N(Cc1ccccc1)Cc1ccccc1`, the MIC [1] was 3.85 µM (≈ 1.56 µg/mL) and the CC50 at 72 h [2] was < 155 µM.
In the case of `C=CCN(CC=C)C(=S)N/N=C\c1ccc([N+](=O)[O-])cc1`, the MIC [1] is reported as 2.56 µM (≈ 0.779 µg/mL) and the CC50 at 72 h [2] is reported as < 205 µM.
With `CC[C@@H](CO)NCCN[C@@H](CC)CO` [ETHAMBUTOL] the MIC [1] was 4.71 µM (≈ 0.962 µg/mL) and the CC50 at 72 h [2] was > 188 µM.
In the case of `NNC(=O)c1ccncc1` [ISONIAZID], the MIC [1] is reported as 0.66 µM (≈ 0.0905 µg/mL) and the CC50 at 72 h [2] is reported as > 456 µM.
For `CC1COc2c(N3CCN(C)CC3)c(F)cc3c(=O)c(C(=O)O)cn1c23` (configuration not stated) [OFLOXACIN], the MIC [1] was 2.13 µM (≈ 0.77 µg/mL) and the CC50 at 72 h [2] was > 155 µM.
For `CO[C@H]1/C=C/O[C@@]2(C)Oc3c(C)c(O)c4c(O)c(c(/C=N/N5CCN(C)CC5)c(O)c4c3C2=O)NC(=O)/C(C)=C\C=C\[C@H](C)[C@H](O)[C@@H](C)[C@@H](O)[C@@H](C)[C@H](OC(C)=O)[C@@H]1C` [RIFAMPIN], the MIC [1] was 0.23 µM (≈ 0.189 µg/mL) and the CC50 at 72 h [2] was > 75.9 µM.
